Here are results for 15 molecules from PubChem BioAssay (NCI).

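Growth conditions: 96-well plates. Treatment: test compound, 48 hours, 5 concentrations. Analysis: linear interpolation between bracketing concentrations; unreached endpoints set to highest concentration. At the TGI there is no net growth.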 A value given as a limit tells only on which side of the number the result lay.

Among the test systems are HCT-15 colon; RXF 393 renal; MDA-MB-231 breast; RPMI-8226 leukemia; M14 melanoma; NCI-H23 lung; SK-MEL-28 melanoma; DU-145 prostate; NCI-H226 lung; UACC-62 melanoma.
Common to all, as to assay: NCI tumour cell line growth inhibition, 48 h

For `COc1nc2c(c(=O)n1C)N(C(C)=O)C1C(N2)OCC(OC(C)=O)C1OC(C)=O` (stereo not given), the TGI in the assay with HCT-15 colon, in the assay with RXF 393 renal, in the assay with MDA-MB-231 breast, in the assay with RPMI-8226 leukemia, in the assay on M14 melanoma and with NCI-H23 lung was above 10 µM in each case. Moreover, the TGI with SK-MEL-28 melanoma, with DU-145 prostate, in the assay with NCI-H226 lung and in the assay with UACC-62 melanoma was above 10 µM each time.

On to `C=Cc1c(C)c(OC)cc2c1Oc1ccc(OC)c(C)c1CC2`, for which the TGI in the assay with HCT-15 colon, in the assay on RXF 393 renal, in the assay on MDA-MB-231 breast, with RPMI-8226 leukemia, in the assay on M14 melanoma and with NCI-H23 lung was above 100 µM throughout. In addition, the TGI in the assay on SK-MEL-28 melanoma, with DU-145 prostate, in the assay with NCI-H226 lung and with UACC-62 melanoma was above 100 µM each time.

On to `COc1cccc(/C=C2/Sc3scc(-c4ccccc4)[n+]3C2=O)c1O`, for which the TGI with HCT-15 colon was 29.9 µM; with RXF 393 renal, 29.8 µM; in the assay with MDA-MB-231 breast, 79.2 µM; in the assay on M14 melanoma, above 100 µM; in the assay with NCI-H23 lung, 38.9 µM; with SK-MEL-28 melanoma, 40.9 µM. For the same molecule, the TGI came out at 56.9 µM with DU-145 prostate, 40.5 µM in the assay on NCI-H226 lung and 30.5 µM in the assay with UACC-62 melanoma.

As for `O=c1oc2ccccc2c2c(=O)c3ccc(OC/C(=N/O)c4ccc(Cl)cc4)cc3oc12`, the TGI was 24.5 µM with HCT-15 colon; 8.06 µM with RXF 393 renal; 43.2 µM in the assay with MDA-MB-231 breast; 33.1 µM in the assay with RPMI-8226 leukemia; 34 µM with M14 melanoma; 45.1 µM in the assay on NCI-H23 lung. Also, the TGI in the assay on DU-145 prostate turned out to be 36.1 µM; in the assay with NCI-H226 lung it was 36.2 µM; with UACC-62 melanoma it was 24.4 µM.

`NNC(=O)c1ccc(-n2nnc(C(=O)NN)c2C(=O)NN)cc1`: the TGI with HCT-15 colon, with MDA-MB-231 breast, with RPMI-8226 leukemia, with M14 melanoma, in the assay on NCI-H23 lung and in the assay with SK-MEL-28 melanoma was above 100 µM in each case. For the same molecule, the TGI in the assay with DU-145 prostate is above 100 µM.

As for `COC(=O)C1CCC(=O)N1CN(C(C)=O)c1ccccc1` (stereo not given), the TGI in the assay with HCT-15 colon, in the assay on MDA-MB-231 breast, in the assay on RPMI-8226 leukemia, in the assay with M14 melanoma, with NCI-H23 lung and with SK-MEL-28 melanoma was above 100 µM throughout. Besides, the TGI in the assay with DU-145 prostate, with NCI-H226 lung and with UACC-62 melanoma was above 100 µM each time.

As for `CCCCCCNC(=O)c1cnc(Cl)cn1`, the TGI with HCT-15 colon is 7.25 µM; with MDA-MB-231 breast, 32.4 µM; in the assay with RPMI-8226 leukemia, above 100 µM; in the assay with M14 melanoma, 26 µM; in the assay on NCI-H23 lung, 23.5 µM; with SK-MEL-28 melanoma, 74.9 µM. In addition, the TGI in the assay on DU-145 prostate was 29.6 µM; in the assay on NCI-H226 lung, 21.7 µM; in the assay on UACC-62 melanoma it was 33.4 µM.

For `COc1ccccc1NC(=O)/C(Cc1nc2ccc([N+](=O)[O-])cc2[nH]c1=O)=N\NC(=O)C[N+](C)(C)C`, the TGI in the assay with HCT-15 colon, in the assay on RXF 393 renal, in the assay with MDA-MB-231 breast, in the assay on M14 melanoma, in the assay on NCI-H23 lung and with SK-MEL-28 melanoma was above 100 µM in each case. Moreover, the TGI in the assay with DU-145 prostate, in the assay on NCI-H226 lung and in the assay on UACC-62 melanoma was above 100 µM throughout.

Turning to `CCCC(=O)NC1=C(NCC)C(=O)c2ccccc2C1=O`, the TGI in the assay with HCT-15 colon, in the assay with RXF 393 renal, with MDA-MB-231 breast, with RPMI-8226 leukemia, in the assay on NCI-H23 lung and in the assay on SK-MEL-28 melanoma was above 100 µM each time. Further, the TGI in the assay on DU-145 prostate, in the assay on NCI-H226 lung and in the assay with UACC-62 melanoma was above 100 µM throughout.

With `CC1(C)CS(=O)(=O)CC(C)(C)C(=N/N)/C1=N\N`, the TGI in the assay on HCT-15 colon, in the assay on M14 melanoma, with NCI-H23 lung, with SK-MEL-28 melanoma, in the assay on DU-145 prostate and in the assay with UACC-62 melanoma was above 100 µM in each case.

`CC(=O)Nc1ccccc1SCCSSCCSc1ccccc1NC(C)=O`: the TGI with HCT-15 colon is 42.2 µM; with RXF 393 renal it was above 100 µM; with MDA-MB-231 breast it was 91.4 µM; in the assay on RPMI-8226 leukemia it was 42.2 µM; in the assay on M14 melanoma it was above 100 µM; in the assay with NCI-H23 lung, 83.9 µM. Further, the TGI is 88.7 µM in the assay on DU-145 prostate, 81.8 µM in the assay with NCI-H226 lung and above 100 µM in the assay on UACC-62 melanoma.

In the case of `COC(=O)C1=CSC2(S1)C(C(=O)OC)=CSc1c2ssc1=Nc1ccccc1` (stereo not given), the TGI in the assay with RXF 393 renal turned out to be 6.12 µM; in the assay with MDA-MB-231 breast, 4.79 µM; in the assay with RPMI-8226 leukemia, 2.87 µM; in the assay with M14 melanoma, 5.13 µM; in the assay on NCI-H23 lung, 8.43 µM; in the assay on SK-MEL-28 melanoma, 5.76 µM. The TGI came out at 16.2 µM with DU-145 prostate and 3.52 µM in the assay with UACC-62 melanoma.

On to `CCC1(CC)CC(=NNS(=O)(=O)c2ccc(C)cc2)C1`, for which the TGI in the assay on HCT-15 colon, in the assay on RXF 393 renal, with MDA-MB-231 breast, in the assay with M14 melanoma, in the assay with NCI-H23 lung and in the assay on SK-MEL-28 melanoma was above 100 µM in each case. For the same molecule, the TGI in the assay on DU-145 prostate, in the assay on NCI-H226 lung and in the assay with UACC-62 melanoma was above 100 µM throughout.

For the molecule `Cc1c(/C=N/NC(=S)Nc2ccccc2Cl)c(=O)n(-c2ccccc2)n1C`, the TGI in the assay on HCT-15 colon was above 100 µM; in the assay with RXF 393 renal, 47.9 µM; in the assay on MDA-MB-231 breast it was 35.7 µM; with RPMI-8226 leukemia, above 100 µM; with M14 melanoma, above 100 µM; with SK-MEL-28 melanoma, above 100 µM. The TGI with DU-145 prostate, with NCI-H226 lung and in the assay on UACC-62 melanoma was above 100 µM each time.

`CC1CC[C@@H](C(C)C)[C@H](Oc2nnc(C3OC(CO)C(O)C3O)o2)C1` (stereo not given in full): the TGI in the assay with HCT-15 colon, with RXF 393 renal, in the assay with MDA-MB-231 breast, in the assay on RPMI-8226 leukemia, in the assay with NCI-H23 lung and with DU-145 prostate was above 100 µM each time. Moreover, the TGI in the assay on NCI-H226 lung and in the assay with UACC-62 melanoma was above 100 µM each time.
